From patent publication US6639078B1, “Assays for ligands for nuclear receptors” (SmithKline Beecham Corporation, priority 1998, dated 2003)
Where two headings read alike, the source gives them in different places.

Tests used:
human FXR LBD [1] = target: T1, human FXR LBD (Homo sapiens, UniProt Q96RI1); test: FRET ligand-sensing assay in the presence of 50 μM CDCA (competition with CDCA for FXR binding)
T1 sequence (Q96RI1 222-472 isoform Q96RI1-2): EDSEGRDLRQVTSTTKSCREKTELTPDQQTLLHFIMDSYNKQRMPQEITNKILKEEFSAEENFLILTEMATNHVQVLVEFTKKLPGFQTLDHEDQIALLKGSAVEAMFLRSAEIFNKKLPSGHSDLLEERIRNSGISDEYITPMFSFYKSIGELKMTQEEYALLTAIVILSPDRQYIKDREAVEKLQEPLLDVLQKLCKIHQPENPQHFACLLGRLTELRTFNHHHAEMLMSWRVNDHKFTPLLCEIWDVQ
Text: Data are expressed as the means ± SD derived from three independent experiments.
Data were collected using a Wallac Victor™ fluorescence reader in a time-resolved mode.

full-length human FXR = target: T2, full-length human FXR (Homo sapiens, UniProt Q96RI1); test: CAT reporter assay in CV-1 cells transfected with FXR, human RXRα and FXREhsp27-tk-CAT; conditions: 100 μM bile acid or farnesol, 10 μM steroid or TTNPB
T2 sequence (Q96RI1 1-472 isoform Q96RI1-2): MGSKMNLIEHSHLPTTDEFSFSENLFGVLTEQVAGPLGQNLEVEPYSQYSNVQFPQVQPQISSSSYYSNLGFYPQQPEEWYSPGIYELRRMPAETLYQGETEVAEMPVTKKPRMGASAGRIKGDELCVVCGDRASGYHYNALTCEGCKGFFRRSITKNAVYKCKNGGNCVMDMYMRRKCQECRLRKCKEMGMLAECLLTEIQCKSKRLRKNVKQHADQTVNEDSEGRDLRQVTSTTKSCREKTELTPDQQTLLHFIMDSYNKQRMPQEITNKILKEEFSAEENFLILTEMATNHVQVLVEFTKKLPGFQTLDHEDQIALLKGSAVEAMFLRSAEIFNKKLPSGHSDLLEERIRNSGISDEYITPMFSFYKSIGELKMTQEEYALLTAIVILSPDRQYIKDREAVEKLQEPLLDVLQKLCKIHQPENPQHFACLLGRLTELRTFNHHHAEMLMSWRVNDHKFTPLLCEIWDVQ
T2 sequence (P19793 1-462 partner): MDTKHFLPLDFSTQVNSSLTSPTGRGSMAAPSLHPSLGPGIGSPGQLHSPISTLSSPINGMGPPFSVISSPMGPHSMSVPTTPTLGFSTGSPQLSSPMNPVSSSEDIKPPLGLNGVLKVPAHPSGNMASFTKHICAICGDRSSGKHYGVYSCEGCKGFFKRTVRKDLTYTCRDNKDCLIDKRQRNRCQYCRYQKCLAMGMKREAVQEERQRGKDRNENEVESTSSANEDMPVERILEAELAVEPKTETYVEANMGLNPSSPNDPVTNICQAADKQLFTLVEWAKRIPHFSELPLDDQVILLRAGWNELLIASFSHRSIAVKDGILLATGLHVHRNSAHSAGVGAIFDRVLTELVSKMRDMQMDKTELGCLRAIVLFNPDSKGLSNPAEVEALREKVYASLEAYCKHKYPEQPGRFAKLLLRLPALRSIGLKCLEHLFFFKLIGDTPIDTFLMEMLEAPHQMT
Text: CV-1 cells were transiently transfected with an expression plasmid encoding the human FXR and a reporter construct containing the hsp27-EcRE, a response element that is known to be activated by the FXR/RXR heterodimer.

human FXR LBD [2] = target: T1, human FXR LBD; test: FRET ligand-sensing assay: SRC1 peptide binding to FXR LBD; conditions: 100 μM compound (FIG. 3A/4a)

Molecule | activation of full-length human FXR (full-length human FXR) | effect on interaction between FXR LBD and SRC1 peptide (human FXR LBD [2]) | further results
C[C@H](CCC(=O)O)[C@H]1CC[C@H]2[C@@H]3CC[C@@H]4C[C@H](O)CC[C@]4(C)[C@H]3C[C@H](O)[C@]12C [DCA, deoxycholic acid] | – | – | IC50 (human FXR LBD [1]): 100 µM
C[C@H](CCC(=O)O)[C@H]1CC[C@H]2[C@@H]3[C@@H](O)[C@@H](O)[C@@H]4C[C@H](O)CC[C@]4(C)[C@H]3CC[C@]12C [β-muricholic acid] | no activation | – | –
C[C@H](CCC(=O)O)[C@H]1CC[C@H]2[C@@H]3[C@H](O)C[C@@H]4C[C@H](O)CC[C@]4(C)[C@H]3C[C@H](O)[C@]12C [CA, cholic acid] | inactive | no effect | –
muricholic acid [MCA] | – | – | IC50 (human FXR LBD [1]; read-out: half-maximal inhibitor concentration IC50 in the cell-free ligand sensing assay, in the presence of 50 μM CDCA): > 1000 µM
C/C(=C\c1ccc(C(=O)O)cc1)c1ccc2c(c1)C(C)(C)CCC2(C)C [TTNPB] | activate FXR | did not promote interactions | effect on CDCA-FXR-SRC1 complex (fluorescence signal) (human FXR LBD [1]; in the presence of 50 μM CDCA): disrupted the CDCA-FXR-SRC1 complex in a dose-dependent fashion
C[C@H](CCC(=O)O)[C@H]1CC[C@H]2[C@@H]3[C@H](O)[C@@H](O)[C@@H]4C[C@H](O)CC[C@]4(C)[C@H]3CC[C@]12C [α-muricholic acid] | no activation | – | –
